Test: recombinant barcode read abundance after kanamycin selection (control-corrected) (log10(CPM+1)); higher = more efficient recombination; sequences stand for … in AGTGCAGAGAAAATCGGCCAGTTTTCTCTGCCTGCAGTCCGCATGCCGT…AGATTTATGCAGCGGACTGCCTTTCTCCCAAAGTGATAAACCGGACAGTATCATGGACCGGTTTTCCCGGTAATCCGTATTTGCAAGGTTGGTTTCACT; site = the 11-nt target
Procedure, shortened: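 Pooled E. coli screen pairing targets with IS621 bridge RNA target-binding loops. Each oligo (promoter, target, barcode, J23119-driven first 104 bridge RNA bases) was Gibson-cloned into a vector with the remaining 73 bp and T7-inducible recombinase, then co-electroporated with a donor plasmid. Two replicates each were plated on chloramphenicol/ampicillin LB agar (control) or chloramphenicol/ampicillin/kanamycin with 0.1 mM IPTG. Recombination efficiency is recombinant-junction barcode counts as CPM, averaged, control-corrected, reported as log10(CPM+1).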
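Note: IS621 recombinase and bridge RNA in Escherichia coli cells.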

Row | Sequence | recombinant barcode read abundance (log10)
1 | TAGCTCACTTGGGTTCTAACCTGTTGCGG (site TAGCGCACTCC) | 0.791
2 | TAGCTCACTTGGGTTCTAACCTGTTGCGG (site TAGCTCACTCC) | 1.3
3 | TAGCTCCCTTGGGTTCTAACCTGTTGCCG (site TAGCTCCCTAG) | 0.475
4 | TAGCTCCCTTGGGTTCTAACCTGTTGCCG (site TAGCTCCCTCG) | 1.43
5 | TAGCTCCCTTGGGTTCTAACCTGTTGCCG (site TAGCTCCCTGG) | 0.238
6 | TAGCTCCCTTGGGTTCTAACCTGTTGCCG (site TAGCTCCCTTG) | 0.379
7 | TAGCTCCCTTGGGTTCTAACCTGTTGCCT (site TAGCTCCCTAG) | 1.21
8 | TAGCTCCCTTGGGTTCTAACCTGTTGCCT (site TAGCTCCCTCG) | 0.0637
9 | TAGCTCCCTTGGGTTCTAACCTGTTGCCT (site TAGCTCCCTGG) | 0.105
10 | TAGCTCCCTTGGGTTCTAACCTGTTGCCT (site TAGCTCCCTTG) | 0.016
11 | TAGCTGACTTGGGTTCTAACCTGTTGCCT (site TAGCAGACTAG) | 1.14
12 | TAGCTGACTTGGGTTCTAACCTGTTGCCT (site TAGCCGACTAG) | 0.624
13 | TAGCTGACTTGGGTTCTAACCTGTTGCCT (site TAGCGGACTAG) | 0.194
14 | TAGCTGACTTGGGTTCTAACCTGTTGCCT (site TAGCTGACTAG) | 1.28
15 | TAGGAACCTTGGGTTCTAACCTGTTGCGT (site GAGGAGCCTAC) | 0.022
16 | TAGGAACCTTGGGTTCTAACCTGTTGCGT (site TAGGAACCTAC) | 3.35
17 | TAGGAAGCTTGGGTTCTAACCTGTTGCGA (site TAGAAAGCTTG) | 0.108
18 | TAGGAAGCTTGGGTTCTAACCTGTTGCGA (site TAGGAAGCTTC) | 2.34
19 | TAGGACTCTTGGGTTCTAACCTGTTGCAT (site CCTCGTCCTGG) | 0.0204
20 | TAGGACTCTTGGGTTCTAACCTGTTGCAT (site TAGGACTCTAT) | 1.79
21 | TAGGAGACTTGGGTTCTAACCTGTTGCCC (site CAGGAGACTAG) | 0.0355
22 | TAGGAGACTTGGGTTCTAACCTGTTGCCC (site TAGGAGACTGG) | 1.99
23 | TAGGAGACTTGGGTTCTAACCTGTTGCGT (site TAGGAAACTAC) | 1.42
24 | TAGGAGACTTGGGTTCTAACCTGTTGCGT (site TAGGACACTAC) | 0.642
25 | TAGGAGACTTGGGTTCTAACCTGTTGCGT (site TAGGAGACTAC) | 2.56
26 | TAGGAGACTTGGGTTCTAACCTGTTGCGT (site TAGGATACTAC) | 0.233

Row | Sequence | recombinant barcode read abundance (log10)
27 | TAGGAGCCTTGGGTTCTAACCTGTTGCGT (site TACGAACCTAC) | 0.323
28 | TAGGAGCCTTGGGTTCTAACCTGTTGCGT (site TAGGAGCCTAC) | 3.27
29 | TAGGCCACTTGGGTTCTAACCTGTTGCCT (site TAGGCCACTAA) | 0.0204
30 | TAGGCCACTTGGGTTCTAACCTGTTGCCT (site TAGGCCACTAC) | 0.122
31 | TAGGCCACTTGGGTTCTAACCTGTTGCCT (site TAGGCCACTAG) | 0.592
32 | TAGGCCACTTGGGTTCTAACCTGTTGCCT (site TAGGCCACTAT) | 0
33 | TAGGCGCCTTGGGTTCTAACCTGTTGCAT (site TAGGCGCCTAA) | 4.17
34 | TAGGCGCCTTGGGTTCTAACCTGTTGCAT (site TAGGCGCCTAC) | 0.723
35 | TAGGCGCCTTGGGTTCTAACCTGTTGCAT (site TAGGCGCCTAG) | 0.0713
36 | TAGGCGCCTTGGGTTCTAACCTGTTGCAT (site TAGGCGCCTAT) | 0.299
37 | TAGGCGCCTTGGGTTCTAACCTGTTGCGT (site TAGGCGCCTAA) | 0.0787
38 | TAGGCGCCTTGGGTTCTAACCTGTTGCGT (site TAGGCGCCTAC) | 0.735
39 | TAGGCGCCTTGGGTTCTAACCTGTTGCGT (site TAGGCGCCTAG) | 0.0904
40 | TAGGCGCCTTGGGTTCTAACCTGTTGCGT (site TAGGCGCCTAT) | 0.249
41 | TAGGCGGCTTGGGTTCTAACCTGTTGCGT (site AGCTGTCCTCT) | 0.0593
42 | TAGGCGGCTTGGGTTCTAACCTGTTGCGT (site TAGGCGGCTAC) | 2.63
43 | TAGGCTCCTTGGGTTCTAACCTGTTGCAA (site TAGGCTCCTAT) | 0.309
44 | TAGGCTCCTTGGGTTCTAACCTGTTGCAA (site TAGGCTCCTCT) | 0.0906
45 | TAGGCTCCTTGGGTTCTAACCTGTTGCAA (site TAGGCTCCTGT) | 0
46 | TAGGCTCCTTGGGTTCTAACCTGTTGCAA (site TAGGCTCCTTT) | 1.41
47 | TAGGCTCCTTGGGTTCTAACCTGTTGCCG (site TAGCCTACTCG) | 0.00951
48 | TAGGCTCCTTGGGTTCTAACCTGTTGCCG (site TAGGCTCCTCG) | 0.412
49 | TAGGCTCCTTGGGTTCTAACCTGTTGCCT (site TAAGATCCTAG) | 0.205
50 | TAGGCTCCTTGGGTTCTAACCTGTTGCCT (site TAGGCTCCTAG) | 0
51 | TAGGGGACTTGGGTTCTAACCTGTTGCAA (site CGTCCTGCTAA) | 0.0997
52 | TAGGGGACTTGGGTTCTAACCTGTTGCAA (site TAGGGGACTTT) | 2.27

Row | Sequence | recombinant barcode read abundance (log10)
53 | TAGGTATCTTGGGTTCTAACCTGTTGCAG (site CCTTGTGCTAC) | 0.156
54 | TAGGTATCTTGGGTTCTAACCTGTTGCAG (site TAGGTATCTCT) | 2.01
55 | TAGGTCCCTTGGGTTCTAACCTGTTGCAT (site TAGGTACCTAT) | 0.389
56 | TAGGTCCCTTGGGTTCTAACCTGTTGCAT (site TAGGTCCCTAT) | 1.85
57 | TAGGTCCCTTGGGTTCTAACCTGTTGCAT (site TAGGTGCCTAT) | 0.0967
58 | TAGGTCCCTTGGGTTCTAACCTGTTGCAT (site TAGGTTCCTAT) | 0.228
59 | TAGGTCCCTTGGGTTCTAACCTGTTGCGA (site AAGGTCCCTCC) | 0.0896
60 | TAGGTCCCTTGGGTTCTAACCTGTTGCGA (site TAGGTCCCTTC) | 3.11
61 | TAGTAAGCTTGGGTTCTAACCTGTTGCCT (site TAGTAAGCTAG) | 1.23
62 | TAGTAAGCTTGGGTTCTAACCTGTTGCCT (site TAGTATCCTAG) | 0.088
63 | TAGTACCCTTGGGTTCTAACCTGTTGCAA (site TAGTACCCTAT) | 0.0814
64 | TAGTACCCTTGGGTTCTAACCTGTTGCAA (site TAGTACCCTCT) | 0.104
65 | TAGTACCCTTGGGTTCTAACCTGTTGCAA (site TAGTACCCTGT) | 0.0816
66 | TAGTACCCTTGGGTTCTAACCTGTTGCAA (site TAGTACCCTTT) | 0.801
67 | TAGTACGCTTGGGTTCTAACCTGTTGCAG (site TAGTAAGCTCA) | 0.12
68 | TAGTACGCTTGGGTTCTAACCTGTTGCAG (site TAGTACGCTCT) | 1.8
69 | TAGTACGCTTGGGTTCTAACCTGTTGCTT (site ACACGGCCTCG) | 0.331
70 | TAGTACGCTTGGGTTCTAACCTGTTGCTT (site TAGTACGCTAA) | 0.848
71 | TAGTACTCTTGGGTTCTAACCTGTTGCTG (site TAGTACTCTAA) | 0.244
72 | TAGTACTCTTGGGTTCTAACCTGTTGCTG (site TAGTACTCTCA) | 1.06
73 | TAGTACTCTTGGGTTCTAACCTGTTGCTG (site TAGTACTCTGA) | 0.053
74 | TAGTACTCTTGGGTTCTAACCTGTTGCTG (site TAGTACTCTTA) | 0.0609
75 | TAGTAGTCTTGGGTTCTAACCTGTTGCAT (site TAGTAGTCTAA) | 0.503
76 | TAGTAGTCTTGGGTTCTAACCTGTTGCAT (site TAGTAGTCTAC) | 1.14
77 | TAGTAGTCTTGGGTTCTAACCTGTTGCAT (site TAGTAGTCTAG) | 0.596

Source: the supplement of paper PMC11208160
